Assay results from patent publication US20220193060A1, “Inhibition of IL-1 Induced Inflammation” (THIOLAB, LLC., priority 2019, published 2022).
Entries after “also recorded” stand apart in the source; their conditions may differ.

Legend:
[1] = test system: non-malignant intraductal breast hyperplasia; assay: Case: oral CPDS for breast hyperplasia; format: in vivo, human
Procedure: An individual, diagnosed with non-malignant intraductal breast hyperplasia on the upper left quadrant of the left breast was treated with CPDS. […] CPDS was administered in 99.7% pure form in capsules without excipients.

[2] = cited from earlier work
[3] = test system: RAW 264.7 cells; assay: Cell viability of RAW 264.7 cells; format: cell-based; conditions: murine RAW 264.7 cells
[4] = test system: IL-1RA; assay: human IL-1RA (receptor antagonist) ELISA, THP-1 supernatant; format: cell-based
Procedure: (§1) Methodology: The study included replicated tests of IL-1β levels with and without CPDS, as well as reference testing of untreated cells and cells treated with lactoferrin and clobetasol. A third test was conducted of IL-1 receptor […] (IL-1RA) receptor, to assist in distinguishing whether reductions in IL-1β levels were associated with secretion or receptor blocking (via the receptor antagonist). Cell viability studies were conducted for both sets of tests. 1. THP-1 cells were grown in (RPMI+10% FBS, 10 mM HEPES, 1 mM Sodium Pyruvate, and 0.05 mM 2-Mecaptpethanol) to P8. 2. Cells were plated at 30,000 cells per well in 120 ul with Media+20 ng/ml PMA+2× Genta. 3. […] Cells were treated according to plan below. 5. Cells were incubated for three more days at 37° C. and 5% CO2. 6. Cell supernatant were collected and ELISA was measured for IL-1RA, IL-1α, and IL-1β. 7. Plate was read at 490 nm until O.D reached 1.5. In order to determine whether the reduction in IL-1β was from blocking of secretion or from blocking of the receptor, a human IL-1RA (receptor antagonist) ELISA test was performed.

[5] = test system: THP-1 cells; assay: Cell viability of CPDS-treated THP-1 cells; format: cell-based, human
Procedure: as §1, with “1.5.” for “1.5. In order to determine whether the reduction in IL-1β was from blocking of secretion or from blocking of the receptor, a human IL-1RA (receptor antagonist) ELISA test was performed.”

[6] = test system: arthritic psoriasis; assay: Case: oral CPDS for arthritic psoriasis; format: in vivo, human; conditions: oral 140 mg/day, 4 days a week
Procedure: The patient was a person. Their disease began 1 year previously. Their main complaint was pain in their right wrist, which prevented them from using their right hand and arm; they had bothersome itching cutaneous psoriatic lesions. Treatment at the time consisted of cortisone (5 mg/day) and non-steroidal anti-inflammatory drugs and weekly administrations of methotrexate (MTX) 5 mg/week. The side effects of MTX were severe stomach, throat, and mouth lesions, nightmares, visual hallucinations, and dizziness. The patient began taking oral CPDS 90 days previous (140 mg/day), 4 days a week. Within a few days, the side effects of MTX became much milder, and their immune defenses increased. Instead of catching a cold, as they had often, that lasted for weeks and needed antibiotics, their colds were much more brief normal duration.

[7] = test system: IL-10; assay: LPS-stimulated macrophages, IL-10 ELISA; format: cell-based, murine; conditions: CPDS (e.g., 50 μM) 90 minutes before LPS (10 ug/ml), 24 to 48 hours
Procedure: An in vitro model of inflammation mediated by macrophages is used. Primary macrophages isolated from humans or non-human species (e.g., mice or rats) were used. A murine macrophage cell line RAW264.7 (CCRL-2278) was also used. Macrophages are treated with CPDS. […] Then the effect of CPDS on inflammation is assessed by comparing the levels of […] mediators IL-6 and IL-10. IL-10 and IL-6 were determined by ELISA. The level of IL-6 and IL-10 were compared to the level prior to CPDS treatment.

[8] = IV doses up to 300 mg/kg (1 mM)

SMILES: O=C(O)c1ccc(SSc2ccc(C(=O)O)cn2)nc1 [CPDS, 6,6′-dithiodinicotinic acid]
- pain in breast and axilla ([1]; after commencing oral 140 mg per day): subsided within two days
- pain following discontinuation of CPDS ([1]; after discontinuation): returned within two to three days
- side effect ([1]; oral 140 mg per day): No side effect
- growth of breast hyperplasia (mammograms) ([1]; person, oral 140 mg per day, forty-eight months): stopped growing
- kidney or liver weight [2, 8]: slight increase
- lethality [2, 8]: not fatal
- tolerability ([2]; doses up to 300 mg/kg (1 mM) intravenous): tolerated
- cytotoxicity (cell viability) [3]: no cytotoxicity
- reduction of IL-1RA ([4]; 100 μM): 60%
- reduction of IL-1RA ([4]; 200 μM): 76%
- effect on IL-1RA production ([4]; all concentrations lower than 100 μM): did not affect; also recorded: no effect
- cell viability ([5]; 200 μM): slight decline in viability
- cell viability ([5]; all CPDS concentrations except 200 μM, both tests): ≥ 100%
- immune defenses [6]: increased
- function of right hand and wrist ([6]; 90 days): regained function
- side effects of MTX ([6]; person, within a few days): much milder
- expression level of IL-10 [7]: dramatically reduced
